Test results reported in PubChem BioAssay (NCI).
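48-hour exposure; five concentrations; linearly interpolated endpoints. At the GI50, growth is halved. TGI denotes the concentration required for complete inhibition of growth.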

Columns and labels:
Assay in all cases: NCI tumour cell line growth inhibition, 48 h
SK-OV-3 ovarian = test system: SK-OV-3 ovarian
NCI-H522 lung = test system: NCI-H522 lung
CAKI-1 renal = test system: CAKI-1 renal
SK-MEL-28 melanoma = test system: SK-MEL-28 melanoma
OVCAR-5 ovarian = test system: OVCAR-5 ovarian
OVCAR-8 ovarian = test system: OVCAR-8 ovarian
SN12C renal = test system: SN12C renal
MDA-N = test system: MDA-N
EKVX NSCLC = test system: EKVX NSCLC
NCI-H23 lung = test system: NCI-H23 lung

| SMILES | TGI (SK-OV-3 ovarian) [µM] | TGI (NCI-H522 lung) [µM] | TGI (CAKI-1 renal) [µM] | TGI (SK-MEL-28 melanoma) [µM] | TGI (OVCAR-5 ovarian) [µM] | TGI (OVCAR-8 ovarian) [µM] | TGI (SN12C renal) [µM] | TGI (MDA-N) [µM] | TGI (EKVX NSCLC) [µM] | TGI (NCI-H23 lung) [µM] | GI50 (SK-OV-3 ovarian) [nM] | GI50 (NCI-H522 lung) [nM] | GI50 (CAKI-1 renal) [nM] | GI50 (SK-MEL-28 melanoma) [µM] | GI50 (OVCAR-5 ovarian) [nM] | GI50 (OVCAR-8 ovarian) [nM] | GI50 (SN12C renal) [nM] | GI50 (NCI-H23 lung) [nM] | GI50 (EKVX NSCLC) [nM] |
| --- | --- | --- | --- | --- | --- | --- | --- | --- | --- | --- | --- | --- | --- | --- | --- | --- | --- | --- | --- |
| CC(=O)c1cc2c(s1)C(=O)c1ccccc1C2=O | > 80.3 | 3.5 | 37 | 36.2 | 20.6 | 5.98 | 16.3 | 4.74 | 15.9 | – | – | – | – | – | – | – | – | – | – |
| Nc1cc(N2CCCC2)nc(=O)n1Cc1ccccc1 | – | > 100 | > 100 | – | > 100 | > 100 | > 100 | – | > 100 | > 100 | – | – | – | – | – | – | – | – | – |
| OC12CC/C(=N/OCc3ccccc3)CC1c1ccccc12 (configuration not stated) | > 100 | > 100 | > 100 | > 100 | > 100 | > 100 | > 100 | – | > 100 | > 100 | – | – | – | – | – | – | – | – | – |
| CC(=O)OC1[C@H]2c3cc4c(cc3CN3CCC(=C[C@@H]1O)C23)OCO4 (some centres not stated) | > 100 | > 100 | – | > 100 | – | > 100 | > 100 | – | > 100 | > 100 | – | – | – | – | – | – | – | – | – |
| CC(=O)O[C@H]1C(=O)[C@@]2(C)[C@H]([C@H](OC(=O)c3ccccc3)[C@]3(O)C[C@H](OC(=O)[C@H](O)[C@@H](NC(=O)CC(C)(C)C)c4ccccc4)C(C)=C1C3(C)C)C1(OC(C)=O)CO[C@@H]1C[C@@H]2O (some centres not stated) | > 10 | – | > 10 | > 10 | > 2.93 | > 5.8 | > 10 | > 10 | > 10 | > 10 | – | – | – | – | – | – | – | – | – |
| COc1ccc(C(=O)N2c3ccccc3Sc3ccccc32)c(C(F)(F)F)c1 | > 100 | 14.5 | > 100 | > 100 | > 100 | > 100 | > 100 | – | > 100 | > 100 | 794 | 320 | 692 | 9.17 | 1610 | 593 | 1300 | 578 | 613 |
| CC(=O)N1CCN(C23OC4(N5CCN(C(C)=O)CC5)C5C6CC(C7C6C4C72)C53)CC1 (configuration not stated) | > 100 | > 100 | > 100 | – | > 100 | > 100 | > 100 | > 100 | > 100 | > 100 | – | – | – | – | – | – | – | – | – |
| COc1ccc(/C=C2\N=C(c3ccccc3)N(C3Nc4cc5c(cc4S3)NC(N3C(=O)/C(=C/c4ccc(OC)cc4)N=C3c3ccccc3)S5)C2=O)cc1 (configuration not stated) | – | 45.2 | > 100 | > 100 | > 100 | > 100 | – | > 100 | 99.5 | > 100 | – | – | – | – | – | – | – | – | – |
| c1ccc2c(Cc3nnc4sc(SSc5nn6c(Cc7c[nH]c8ccccc78)nnc6s5)nn34)c[nH]c2c1 | > 100 | 40 | 62.6 | > 100 | 53.1 | 73.1 | 56.3 | – | > 100 | 34.7 | – | – | – | – | – | – | – | – | – |
| C[C@]12CC[C@@H]3c4ccc(OC(=O)c5ccccc5)cc4CC[C@H]3[C@@H]1CC[C@@H]2Oc1c2ccccc2nc2ccccc12 | > 50 | 46 | 21.6 | 22.3 | > 50 | 45 | – | 11.6 | 8.96 | > 50 | – | – | – | – | – | – | – | – | – |
| Cn1cnc2c(sc3nc4ccccc4n32)c1=N | > 100 | – | > 100 | > 100 | > 100 | > 100 | – | > 100 | > 100 | > 100 | – | – | – | – | – | – | – | – | – |
| CN(C)CCCOCCn1c2c(c3ccccc31)CCCC2 | – | – | 31.5 | 30.2 | 30.5 | 35.9 | 32.5 | 29 | 57.8 | 94.6 | – | – | – | – | – | – | – | – | – |
| N#CC(NNC(=O)c1ccccc1O)c1cccc(O)c1 (configuration not stated) | > 100 | 98.5 | > 100 | > 100 | > 100 | > 100 | > 100 | – | – | 21.3 | – | – | – | – | – | – | – | – | – |
| Cc1ccc(S(=O)(=O)c2c(O)c3ccccc3n(C)c2=O)cc1 | > 100 | – | > 100 | > 100 | > 100 | > 100 | > 100 | > 100 | > 100 | > 100 | – | – | – | – | – | – | – | – | – |
| CCOc1cc(C2CC(c3ccc(NS(=O)(=O)c4cc([N+](=O)[O-])ccc4C)cc3)=NN2)ccc1O (configuration not stated) | – | > 100 | > 100 | > 100 | > 100 | > 100 | 65.2 | > 100 | 53.3 | 80.7 | – | – | – | – | – | – | – | – | – |
| CC(=O)Oc1ccc(C2COc3cc(OC(C)=O)c(OC(C)=O)cc3C2)cc1 (configuration not stated) | 38.7 | 7.78 | 27.3 | 34.2 | > 97.1 | 35.6 | 52 | – | 32 | 37.7 | – | – | – | – | – | – | – | – | – |
| O=c1[nH]c(N/N=C\C(O)C(O)C(O)CO)nc2ccccc12 (configuration not stated) | > 100 | – | > 100 | > 100 | > 100 | > 100 | > 100 | > 100 | > 100 | > 100 | – | – | – | – | – | – | – | – | – |
| CCCCOCn1c(=O)[nH]c(=O)c2cc(Br)ccc21 | > 100 | – | 46.9 | > 100 | > 100 | 88.6 | > 100 | > 100 | > 100 | – | – | – | – | – | – | – | – | – | – |
| COC(=O)C1(Cc2ccccc2)Cc2ccccc2C1 | > 100 | – | 65.4 | > 100 | > 100 | > 100 | > 100 | 49.3 | 89.4 | > 100 | – | – | – | – | – | – | – | – | – |
| Cc1ccc(C(=O)/C(C#N)=C/Nc2c(C)n(C)n(-c3ccccc3)c2=O)cc1 | > 100 | > 100 | > 100 | > 100 | > 100 | – | > 100 | > 100 | > 100 | > 100 | – | – | – | – | – | – | – | – | – |
| CSc1c(C#N)c2n(c3ccccc13)c1ccccc1[n+]2C | – | 31.5 | 84.3 | > 100 | > 100 | 59.3 | 53.1 | 63.5 | 56.9 | 70.7 | – | – | – | – | – | – | – | – | – |
| O=c1[nH]c(Nc2cccc(Cl)c2)nc2nc[nH]c12 | > 100 | > 100 | > 100 | – | > 100 | > 100 | > 100 | – | > 100 | > 100 | – | – | – | – | – | – | – | – | – |
